PubChem BioAssay (NCI)
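Growth conditions: 96-well plates. Treatment: test compound, 48 hours, 5 concentrations. Analysis: linear interpolation between bracketing concentrations; unreached endpoints set to highest concentration. TGI: total growth inhibition.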

What was measured:
Test in all cases: inhibition of tumour cell growth, NCI panel, 48 h
[1] = test system: A498 renal
[2] = test system: A549 NSCLC
[3] = test system: ACHN renal
[4] = test system: BT-549 breast
[5] = test system: CAKI-1 renal
[6] = test system: CCRF-CEM leukemia
[7] = test system: COLO 205 colon
[8] = test system: DU-145 prostate
[9] = test system: EKVX NSCLC
[10] = test system: HCC-2998 colon
[11] = test system: HCT-116 colon
[12] = test system: HCT-15 colon
[13] = test system: HL-60(TB) leukemia
[14] = test system: HOP-62 NSCLC
[15] = test system: HOP-92 NSCLC
[16] = test system: HS 578T breast
[17] = test system: HT29 colon
[18] = test system: IGROV1 ovarian
[19] = test system: K-562 leukemia
[20] = test system: KM12 colon
[21] = test system: LOX IMVI melanoma
[22] = test system: MALME-3M melanoma
[23] = test system: MCF7 breast
[24] = test system: MDA-MB-231 breast
[25] = test system: MDA-N
[26] = test system: MOLT-4 leukemia
[27] = test system: NCI-H226 lung
[28] = test system: NCI-H23 lung
[29] = test system: NCI-H460 lung
[30] = test system: NCI-H522 lung
[31] = test system: NCI/ADR-RES ovarian
[32] = test system: OVCAR-3 ovarian
[33] = test system: OVCAR-4 ovarian
[34] = test system: OVCAR-5 ovarian
[35] = test system: OVCAR-8 ovarian
[36] = test system: PC-3 prostate
[37] = test system: RPMI-8226 leukemia
[38] = test system: RXF 393 renal
[39] = test system: SF-268 CNS
[40] = test system: SF-295 CNS
[41] = test system: SF-539 CNS
[42] = test system: SK-MEL-2 melanoma
[43] = test system: SK-MEL-28 melanoma
[44] = test system: SK-MEL-5 melanoma
[45] = test system: SK-OV-3 ovarian
[46] = test system: SN12C renal
[47] = test system: SNB-19 CNS
[48] = test system: SNB-75 CNS
[49] = test system: SW-620 colon
[50] = test system: T-47D breast
[51] = test system: TK-10 renal
[52] = test system: U251 CNS
[53] = test system: UACC-257 melanoma
[54] = test system: UACC-62 melanoma
[55] = test system: 786-0 renal
[56] = test system: M14 melanoma
[57] = test system: MDA-MB-435
[58] = test system: UO-31 renal
[59] = test system: SR leukemia

SMILES: CC1=CC(O)C(C(O)(C(F)(F)F)C(F)(F)F)C(C)(C)C1 (stereo not given)
- TGI [1]: 0.0823 µM
- TGI [2]: > 10 µM
- TGI [3]: > 10 µM
- TGI [4]: > 10 µM
- TGI [5]: > 10 µM
- TGI [6]: > 10 µM
- TGI [7]: > 10 µM
- TGI [8]: > 10 µM
- TGI [9]: > 10 µM
- TGI [10]: > 10 µM
- TGI [11]: > 10 µM
- TGI [12]: > 10 µM
- TGI [13]: > 10 µM
- TGI [14]: > 10 µM
- TGI [15]: > 10 µM
- TGI [16]: > 10 µM
- TGI [17]: > 10 µM
- TGI [18]: 0.986 µM
- TGI [19]: > 10 µM
- TGI [20]: > 10 µM
- TGI [21]: > 10 µM
- TGI [22]: > 10 µM
- TGI [23]: > 10 µM
- TGI [24]: > 10 µM
- TGI [25]: > 10 µM
- TGI [26]: > 10 µM
- TGI [27]: > 10 µM
- TGI [28]: > 10 µM
- TGI [29]: > 10 µM
- TGI [30]: > 10 µM
- TGI [31]: > 10 µM
- TGI [32]: > 10 µM
- TGI [33]: > 10 µM
- TGI [34]: > 10 µM
- TGI [35]: > 10 µM
- TGI [36]: > 10 µM
- TGI [37]: > 10 µM
- TGI [38]: > 10 µM
- TGI [39]: > 10 µM
- TGI [40]: > 10 µM
- TGI [41]: > 10 µM
- TGI [42]: > 10 µM
- TGI [43]: > 10 µM
- TGI [44]: 0.163 µM
- TGI [45]: > 10 µM
- TGI [46]: > 10 µM
- TGI [47]: > 10 µM
- TGI [48]: > 10 µM
- TGI [49]: > 10 µM
- TGI [50]: > 10 µM
- TGI [51]: > 10 µM
- TGI [52]: > 10 µM
- TGI [53]: > 10 µM
- TGI [54]: > 10 µM

SMILES: CCCCCCSCC/C(C)=N\OC
- TGI [55]: > 100 µM
- TGI [1]: > 100 µM
- TGI [2]: > 100 µM
- TGI [3]: > 100 µM
- TGI [4]: > 100 µM
- TGI [5]: > 100 µM
- TGI [6]: > 100 µM
- TGI [7]: > 100 µM
- TGI [8]: > 100 µM
- TGI [9]: > 100 µM
- TGI [10]: > 100 µM
- TGI [11]: > 100 µM
- TGI [12]: > 100 µM
- TGI [13]: > 100 µM
- TGI [14]: > 100 µM
- TGI [15]: > 100 µM
- TGI [17]: > 100 µM
- TGI [18]: > 100 µM
- TGI [19]: > 100 µM
- TGI [20]: > 100 µM
- TGI [21]: > 100 µM
- TGI [56]: > 100 µM
- TGI [22]: > 100 µM
- TGI [23]: > 100 µM
- TGI [24]: > 100 µM
- TGI [57]: > 100 µM
- TGI [25]: > 100 µM
- TGI [26]: > 100 µM
- TGI [27]: > 100 µM
- TGI [28]: > 100 µM
- TGI [29]: > 100 µM
- TGI [30]: > 100 µM
- TGI [31]: > 100 µM
- TGI [32]: > 100 µM
- TGI [33]: > 100 µM
- TGI [34]: > 100 µM
- TGI [35]: > 100 µM
- TGI [36]: > 100 µM
- TGI [37]: > 100 µM
- TGI [38]: > 100 µM
- TGI [39]: > 100 µM
- TGI [40]: > 100 µM
- TGI [41]: > 100 µM
- TGI [42]: > 100 µM
- TGI [43]: > 100 µM
- TGI [44]: > 100 µM
- TGI [45]: > 100 µM
- TGI [46]: > 100 µM
- TGI [47]: > 100 µM
- TGI [48]: > 100 µM
- TGI [49]: > 100 µM
- TGI [51]: > 100 µM
- TGI [52]: > 100 µM
- TGI [53]: > 100 µM
- TGI [54]: > 100 µM
- TGI [58]: > 100 µM

SMILES: Cc1oc(N)c(S(=O)(=O)c2cc3ccccc3n(O)c2=N)c1C
- TGI [55]: > 100 µM
- TGI [1]: > 100 µM
- TGI [2]: > 100 µM
- TGI [3]: > 100 µM
- TGI [4]: > 100 µM
- TGI [5]: > 100 µM
- TGI [7]: > 100 µM
- TGI [8]: > 100 µM
- TGI [9]: > 100 µM
- TGI [10]: > 100 µM
- TGI [12]: > 100 µM
- TGI [14]: > 100 µM
- TGI [15]: > 100 µM
- TGI [16]: > 100 µM
- TGI [17]: > 100 µM
- TGI [18]: > 100 µM
- TGI [20]: > 100 µM
- TGI [21]: > 100 µM
- TGI [56]: > 100 µM
- TGI [22]: > 100 µM
- TGI [23]: > 100 µM
- TGI [24]: > 100 µM
- TGI [57]: > 100 µM
- TGI [25]: > 100 µM
- TGI [26]: > 100 µM
- TGI [27]: > 100 µM
- TGI [28]: > 100 µM
- TGI [29]: > 100 µM
- TGI [30]: > 100 µM
- TGI [31]: > 100 µM
- TGI [32]: > 100 µM
- TGI [33]: > 100 µM
- TGI [34]: > 100 µM
- TGI [35]: > 100 µM
- TGI [36]: > 100 µM
- TGI [37]: > 100 µM
- TGI [39]: > 100 µM
- TGI [40]: > 100 µM
- TGI [41]: > 100 µM
- TGI [42]: > 100 µM
- TGI [43]: > 100 µM
- TGI [44]: > 100 µM
- TGI [45]: > 100 µM
- TGI [46]: > 100 µM
- TGI [47]: > 100 µM
- TGI [48]: > 100 µM
- TGI [49]: > 100 µM
- TGI [50]: > 100 µM
- TGI [51]: > 100 µM
- TGI [52]: > 100 µM
- TGI [53]: > 100 µM
- TGI [54]: > 100 µM
- TGI [58]: > 100 µM

SMILES: CCN1CCN(c2nc3ccccc3nc2C(=O)c2ccc(OC)c(OC)c2)CC1
- TGI [55]: 25.7 µM
- TGI [1]: > 100 µM
- TGI [2]: 28.3 µM
- TGI [3]: 26.8 µM
- TGI [4]: 65.6 µM
- TGI [5]: > 100 µM
- TGI [6]: 46 µM
- TGI [7]: 2.91 µM
- TGI [8]: > 100 µM
- TGI [9]: 57.4 µM
- TGI [10]: 9.71 µM
- TGI [11]: 19.7 µM
- TGI [12]: 28.8 µM
- TGI [13]: > 100 µM
- TGI [14]: > 100 µM
- TGI [15]: 70.2 µM
- TGI [17]: 39.4 µM
- TGI [18]: 32.9 µM
- TGI [19]: 34.1 µM
- TGI [20]: 53.2 µM
- TGI [21]: 26.2 µM
- TGI [56]: 31.3 µM
- TGI [22]: 36.5 µM
- TGI [23]: 45.5 µM
- TGI [24]: 32 µM
- TGI [57]: 90.6 µM
- TGI [25]: 97.7 µM
- TGI [26]: 30.5 µM
- TGI [27]: > 100 µM
- TGI [28]: 98.4 µM
- TGI [29]: 50.2 µM
- TGI [30]: 27.9 µM
- TGI [31]: 3.39 µM
- TGI [32]: 60.6 µM
- TGI [33]: 25.7 µM
- TGI [34]: > 100 µM
- TGI [35]: 29.9 µM
- TGI [36]: > 100 µM
- TGI [37]: 35.8 µM
- TGI [38]: 29.8 µM
- TGI [39]: > 100 µM
- TGI [40]: 30 µM
- TGI [41]: 3.14 µM
- TGI [42]: > 100 µM
- TGI [43]: 27.3 µM
- TGI [45]: 24.5 µM
- TGI [46]: > 100 µM
- TGI [47]: 88.2 µM
- TGI [48]: 30.1 µM
- TGI [59]: 24.4 µM
- TGI [49]: > 100 µM
- TGI [50]: > 100 µM
- TGI [51]: 87.5 µM
- TGI [52]: 30.2 µM
- TGI [53]: 46.4 µM
- TGI [54]: > 100 µM
- TGI [58]: 47.1 µM
